# Measurements: PMC5321753, “Enhanced expression of ADCY1 underlies aberrant neuronal signalling and behaviour in a syndromic autism model” (Nature Communications, 2017)
# Key:
# WT and Fmr1 KO mice [1] = assay: Audiogenic seizures (AGS) induced by 120 dB sound; type: in vivo, mouse
# Protocol: Audiogenic seizures (AGS) were examined with 21- to 24-day-old-mouse (7), as this phenotype is dependent on the age of the mouse and only detected in juvenile Frm1 KO mouse. Mouse was placed in a box (30 cm L × 17 cm W × 12 cm H) with a flat plastic lid. A personal alarm (Streetwise, item # SWPDAL) was taped to the lid of the box and wired to a DC power supply to keep the sound amplitude constant. The mouse was allowed to acclimatize to the box for 5 min, following which 120 dB sound was emitted from the alarm for 2 min. The number of mice undergoing seizure activity within the 2-min period was counted. Audiogenic seizures were classified into different stages: wild running, clonic/tonic seizure and death.
# (§1) NB001 was dissolved in water to give a 25 mM stock solution. The stock was diluted in saline and IP injected into mice at 1 mg kg^−1 body weight. In all cases, the drug was administered 1 h before testing. Control mice were treated similarly but injected with saline.
# (§2) To inhibit phosphodiesterase (PDE), rolipram was dissolved in 10% kolliphore and IP injected into mice at 0.5 or 0.03 mg kg^−1. The use of the higher dose (that is, 0.5 mg kg^−1) was to ensure sufficient inhibition of PDE[44][45]. […] Rolipram- or vehicle (10% kolliphore)-injected mice were examined with light/dark test and AGS 30 min after drug administration.
# cAMP = tested on: cAMP; set-up: method as in PMID 9844008; conditions: lower dose 0.03 mg kg^-1; cited from earlier work
# Fmr1 KO mice [2] = tested on: Fmr1 KO mice; set-up: method as in PMID 27445731; conditions: cited from earlier work
# fly model of FXS = tested on: fly model of FXS; set-up: method as in PMID 25568131; conditions: cited from earlier work
# WT and Fmr1 KO mice [3] = assay: Light/dark test; type: in vivo, mouse
# Protocol: Light/dark test was examined as described in our previous study. Light/dark test was performed using 3-month (+/−10 days) old mouse, which was first placed in the dark half of the chamber (Coulbourn Instruments). After 1 min of habituation, the trap door was opened and the mouse was allowed to move freely between the two chambers for 5 min. The time spent in each chamber and the number of entries into the lit side were recorded.
# as §1, §2
# Fmr1 KO mice [4] = tested on: Fmr1 KO mice; set-up: method as in PMID 25568131; conditions: cited from earlier work
# ADCY1 = ADCY1 protein (western blot) and Adcy1 mRNA (qRT-PCR) in cultured hippocampal neurons after DHPG; type: cell-based, mouse; conditions: DHPG 100 μM
# Protocol: (§3) Primary hippocampal neurons were cultured as described, and used for the examination of mGluR1/5-mediated signalling and protein synthesis. Neurons were treated with 100 μM DHPG ((RS)-3,5-dihydroxyphenylglycine). Protein level and mRNA level were examined by western blot (for ADCY1, β-actin, p-ERK1/2 and ERK1/2) and quantitative RT-PCR (for Adcy1 and Gapdh mRNA), respectively.
# ERK1/2 = ERK1/2 activation in cultured hippocampal neurons after DHPG; type: cell-based, mouse; conditions: both WT and Fmr1 KO neurons, DHPG 100 μM
# Protocol: as §3
# [5] = Fmr1 KO mice, rolipram 0.03 mg per kg, 30 min before 120 dB stimulation
# [6] = Fmr1 KO mice, rolipram 0.5 mg kg^-1 IP, 30 min before testing, 120 dB
# [7] = Fmr1 KO mice, rolipram at 0.5 or 0.03 mg kg^-1, systemic
# [8] = WT mice, rolipram 0.03 mg per kg, 30 min before 120 dB stimulation
# [9] = WT mice, rolipram 0.5 mg kg^-1 IP, 30 min before testing, 120 dB
smiles,measurement,setting,value
COc1ccc(C2CNC(=O)C2)cc1OC1CCCC1 (stereo not drawn) [rolipram],% Clonic/tonic seizure,WT and Fmr1 KO mice [1]; [5],35.7%
same,% Death,WT and Fmr1 KO mice [1]; [5],14.3%
same,% Wild running,WT and Fmr1 KO mice [1]; [5],50%
same,% Clonic/tonic seizure,WT and Fmr1 KO mice [1]; [6],46.7%
same,% Death,WT and Fmr1 KO mice [1]; [6],13.3%
same,% Wild running,WT and Fmr1 KO mice [1]; [6],60%
same,AGS,WT and Fmr1 KO mice [1]; [7],did not correct
same,% Clonic/tonic seizure,WT and Fmr1 KO mice [1]; [8],0%
same,% Death,WT and Fmr1 KO mice [1]; [8],0%
same,% Wild running,WT and Fmr1 KO mice [1]; [8],13.3%
same,% Clonic/tonic seizure,WT and Fmr1 KO mice [1]; [9],0%
same,% Death,WT and Fmr1 KO mice [1]; [9],0%
same,% Wild running,WT and Fmr1 KO mice [1]; [9],25%
same,cAMP changes,cAMP,not sufficient to cause cAMP changes
same,signalling abnormalities in the hippocampus,Fmr1 KO mice [2],failed to correct
same,learning and memory in the fly model of FXS,fly model of FXS,improved
same,abnormal behaviour in light/dark test,WT and Fmr1 KO mice [3]; [7],did not correct
same,behavioral changes in light/dark test (treatment effect),"WT and Fmr1 KO mice [3]; WT or Fmr1 KO mice, rolipram 0.03 mg per kg i.p., 30 min after injection",n.s.
same,behavioural changes in light/dark test (drug effect),"WT and Fmr1 KO mice [3]; WT or Fmr1 KO mice, rolipram 0.5 mg kg^-1 i.p., 30 min after injection",does not cause significant behavioural changes
same,exaggerated mGluR1/5-mediated long-term synaptic depression phenotype,Fmr1 KO mice [4],rescued
"NC(C(=O)O)c1cc(O)cc(O)c1 (racemic) [DHPG, (RS)-3,5-dihydroxyphenylglycine]",ADCY1 protein level in Fmr1 KO neurons,ADCY1; cultured Fmr1 KO hippocampal neurons,no DHPG-triggered increase
same,Adcy1 mRNA levels,ADCY1; cultured WT and Fmr1 KO hippocampal neurons,did not alter
same,ADCY1 protein level in WT neurons,ADCY1; cultured WT hippocampal neurons,up-regulation
same,downstream intracellular signalling target ERK1/2,ERK1/2,activates
